{"source": "patent US9315535B2", "about": "“Nucleoside and nucleotide having nitrogen-containing heterocycle structure” (SHIONOGI & CO., LTD., priority 2013, dated 2016)", "key": {"[1]": {"tested_on": "DNA complementary strand (sense strand 3′-CGC AAA AAA CGA-5′)", "test": "Melting temperature (Tm) of oligonucleotide hybridized to the DNA complementary strand", "type": "binding", "description": "(§1) Nitrogen stream was passed through the cell chamber of the spectrophotometer (SHIMADZU UV-1800) to prevent dew condensation, and the sample solution was gradually cooled to 5° C. and kept at 5° C. for 15 minutes before starting the measurements. The temperature was raised to 90° C. at the rate of 0.5° C./min while ultraviolet absorption spectra were measured at 260 nm at intervals of 0.5° C. Lidded cells were used to prevent concentration change due to rising temperature.\n(§2) The method for determining the Tm values was a method similar to (1).\nas §2"}, "[2]": {"tested_on": "RNA complementary strand (sense strand 3′-CGC AAA AAA CGA-5′)", "test": "Melting temperature (Tm) of oligonucleotide hybridized to the RNA complementary strand", "type": "binding", "description": "as §1, §2, §2"}, "[3]": {"conditions": "Table 10, X = II-1 (compound I-1), 100 mM NaCl, 10 mM sodium phosphate buffer (pH 7.2), 4.0 μM each strand"}, "[4]": {"conditions": "Table 11, Xp = II-2 (compound IV-1), method similar to (1)"}, "[5]": {"conditions": "Table 12, nucleoside structure of compound VII-1 (II-3), method similar to (1)"}}, "data": [{"substance": "5′-d(GCG TTT TTT GCT)-3′ (DNA GCGTTTTTTGCT; DNA, backbone not given here) [oligonucleotide (0), nucleoside moieties of the oligonucleotide are unmodified, used as a control, reference compound]", "values": [{"measurement": "Tm, DNA complementary strand", "setting": "[1]; [3]", "result": 53.1, "unit": "°C"}, {"measurement": "Tm, DNA complementary strand", "setting": "[1]; [4]", "result": 53.1, "unit": "°C"}, {"measurement": "Tm, DNA complementary strand", "setting": "[1]; [5]", "result": 54.0, "unit": "°C"}, {"measurement": "Tm, RNA complementary strand", "setting": "[2]; [3]", "result": 49.3, "unit": "°C"}, {"measurement": "Tm, RNA complementary strand", "setting": "[2]; [4]", "result": 49.3, "unit": "°C"}, {"measurement": "Tm, RNA complementary strand", "setting": "[2]; [5]", "result": 49.7, "unit": "°C"}]}]}
